We go through 15 compounds from article PMC8446315, “Synthesis, biological evaluation, molecular modeling, and structural analysis of new pyrazole and pyrazolone derivatives as N‐formyl peptide receptors agonists” (Chemical Biology & Drug Design, 2021).

Like-named read-outs stand apart in the source and are kept apart here.

One data set deals with healthy human subject. The arrangement: method as in Lind et al., 2019; Stalder et al., 2017. The following applies: phase I clinical trial, ref Lind et al., 2019, Stalder et al., 2017; cited from earlier work.
Data set [1] concerns rat model of rheumatoid arthritis. The arrangement: method as in Crocetti et al., 2020. To be noted: ref Crocetti et al., 2020; cited from earlier work.
The next data set deals with T1, FPR2 (Homo sapiens, UniProt P25090).
T1 construct: expressed in transfected cells
T1 sequence (P25090 1-351): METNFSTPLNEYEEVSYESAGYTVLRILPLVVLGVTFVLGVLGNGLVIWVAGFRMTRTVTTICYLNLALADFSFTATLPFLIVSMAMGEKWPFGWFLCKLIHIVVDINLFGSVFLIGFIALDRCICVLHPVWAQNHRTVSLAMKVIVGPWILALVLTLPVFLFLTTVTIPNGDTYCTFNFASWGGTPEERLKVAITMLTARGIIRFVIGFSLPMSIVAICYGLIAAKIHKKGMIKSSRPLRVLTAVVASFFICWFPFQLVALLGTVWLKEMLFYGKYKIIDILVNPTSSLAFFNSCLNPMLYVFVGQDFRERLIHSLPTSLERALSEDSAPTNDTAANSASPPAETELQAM
Briefly: Ca2+ mobilization in FPR2-transfected HL60 cells. Format: cell-based. The following applies: for efficacy (%) HL60‐FPR2: % of the response induced by 5 nM WKYMVm.

For a further data set, the target named is T2, FPR1 (Homo sapiens, UniProt P21462).
T2 construct: expressed in transfected cells
T2 sequence (P21462 1-350): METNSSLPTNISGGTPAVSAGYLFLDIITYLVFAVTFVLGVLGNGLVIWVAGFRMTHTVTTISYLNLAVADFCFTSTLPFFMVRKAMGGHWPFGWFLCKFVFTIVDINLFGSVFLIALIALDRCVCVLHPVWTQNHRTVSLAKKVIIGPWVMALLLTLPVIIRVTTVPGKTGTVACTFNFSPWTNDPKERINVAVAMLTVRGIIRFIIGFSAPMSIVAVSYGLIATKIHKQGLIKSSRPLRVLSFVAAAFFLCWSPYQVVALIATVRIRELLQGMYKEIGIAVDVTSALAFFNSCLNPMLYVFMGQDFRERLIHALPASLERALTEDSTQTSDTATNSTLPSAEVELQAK
Briefly: Ca2+ mobilization in FPR1-transfected HL60 cells. Format: cell-based. To be noted: for efficacy (%) HL60‐FPR1: % of the response induced by 5 nM fMLF.

In another data set the test system is human neutrophils (hPMN). Briefly: Ca2+ mobilization in human neutrophils (hPMN). The format is cell-based. The following applies: for efficacy (%) hPMN: % of the response induced by 5 nM fMLF; for EC50: Homo sapiens, Neutrophil. An excerpt:
Blood was collected from healthy donors in accordance with a protocol approved by the Institutional Review Board at Montana State University. Neutrophils were purified from the blood using dextran sedimentation, followed by Histopaque 1077 gradient separation and hypotonic lysis of red blood cells. Isolated neutrophils were washed twice and resuspended in HBSS^‐. Neutrophil preparations were routinely >95% pure, as determined by light microscopy, and >98% viable, as determined by trypan blue exclusion.
Changes in intracellular Ca^2+ were measured with a FlexStation II scanning fluorometer (Molecular Devices). The cells, suspended in Hank's balanced salt solution without Ca^2+ and Mg^2+ but with 10 mM HEPES (HBSS^‐), were loaded with 1.25 μg/ml Fluo‐4 a.m. dye and incubated for 30 min in the dark at 37°C. After dye loading, the cells were washed with HBSS^‐ containing 10 mM HEPES, resuspended in HBSS^+ containing Ca^2+, Mg^2+, and 10 mM HEPES (HBSS^+), and aliquoted into the wells of flat‐bottom, half‐area‐well black microtiter plates (2 × 10^5 cells/well). For evaluation of direct agonist activity, compounds of interest were added from a source plate containing dilutions of test compounds in HBSS^+, and changes in fluorescence were monitored (λex = 485 nm, λem = 538 nm) every 5 s for 240 s at room temperature after automated addition of compounds. Maximum change in fluorescence during the first 3 min, expressed in arbitrary units over baseline, was used to determine a response. […] Curve fitting (5–6 points) and calculation of median effective […] were performed by nonlinear regression analysis of the dose–response curves generated using Prism 7 (GraphPad Software, Inc.).
(A change in cytosolic calcium serves as a functional read-out for many receptors and channels.)

Data set [2] has as its system animal models of rheumatoid arthritis. The arrangement: method as in Burli et al., 2006; Odobasic et al., 2018. To be noted: ref Burli et al., 2006; Odobasic et al., 2018; cited from earlier work.
The subject of a further data set is FPR3. To be noted: Figure 2, ref Vergelli et al., cited from earlier work.
[3] abbreviates: Ca2+ mobilization, mean of three independent experiments, N.A. = no activity (limits efficacy <20% and EC50 < 50 µM).

Experimental for FPR1: (§1) Although stable cell lines are cultured under G418 selection pressure, G418 may affect some assays, so it was removed in the last round of culture before assays were performed.
(§2) Changes in intracellular Ca^2+ were measured with a FlexStation II scanning fluorometer (Molecular Devices). The cells, suspended in Hank's balanced salt solution without Ca^2+ and Mg^2+ but with 10 mM HEPES (HBSS^‐), were loaded with 1.25 μg/ml Fluo‐4 a.m. dye and incubated for 30 min in the dark at 37°C. After dye loading, the cells were washed with HBSS^‐ containing 10 mM HEPES, resuspended in HBSS^+ containing Ca^2+, Mg^2+, and 10 mM HEPES (HBSS^+), and aliquoted into the wells of flat‐bottom, half‐area‐well black microtiter plates (2 × 10^5 cells/well). For evaluation of direct agonist activity, compounds of interest were added from a source plate containing dilutions of test compounds in HBSS^+, and changes in fluorescence were monitored (λex = 485 nm, λem = 538 nm) every 5 s for 240 s at room temperature after automated addition of compounds. Maximum change in fluorescence during the first 3 min, expressed in arbitrary units over baseline, was used to determine a response. […] Curve fitting (5–6 points) and calculation of median effective inhibitory concentrations (IC50) were performed by nonlinear regression analysis of the dose–response curves generated using Prism 7 (GraphPad Software, Inc.).
Experimental for FPR2: as §1, §2

Regarding `Cc1cccc(-c2oc(C)nc2C(=O)Nc2cnn(Cc3nc(C(C)(F)F)co3)n2)c1` [Act‐389949], in the data set with healthy human subject, the safety and tolerability result is “safe and well tolerated”.
Consider `COc1cccc(-c2cc(C#N)c(=O)n(CC(=O)Nc3ccc(Br)cc3)c2C)c1` [Compound 2a], for which the “anti‐inflammatory activity in vivo” value in data set [1] is recorded as “anti‐inflammatory activity”.
What is called melting point is the temperature of the solid-liquid transition. Take `COc1ccc(Nc2c(C#N)cnn2CC(=O)Nc2ccc(Br)cc2)cc1` [Compound 4b, N‐(4‐Bromophenyl)‐2‐[4‐cyano‐5‐(4‐methoxyphenylamino)pyrazol‐1‐yl]acetamide]: the melting point lay within 136 to 139 °C.
`COc1cccc(Nc2c(C)c(-c3ccccc3)nn2CC(=O)Nc2ccc(Br)cc2)c1` [Compound 4c, N‐(4‐Bromophenyl)‐2‐[5‐(3‐methoxyphenylamino)‐4‐methyl‐3‐phenylpyrazol‐1‐yl]acetamide]: the melting point was > 300 °C (dec.).
For the compound `COc1ccc(Nc2c(C)c(-c3ccccc3)nn2CC(=O)Nc2ccc(Br)cc2)cc1` [Compound 4d, N‐(4‐Bromophenyl)‐2‐[5‐(4‐methoxyphenylamino)‐4‐methyl‐3‐phenylpyrazol‐1‐yl]acetamide], the melting point was in the range of 212 to 214 °C.
By EC50 is commonly meant the midpoint of the concentration-response curve. `COc1cccc(Nc2ccnn2CC(=O)Nc2ccc(Br)cc2)c1` [Compound 4e, N‐(4‐Bromophenyl)‐2‐[5‐(3‐methoxyphenylamino)‐pyrazol‐1‐yl]acetamide]: the melting point lay in the range of 140 to 143 °C. At FPR2, the midpoint of the response, the EC50, lay at 23.4 ± 5.3 µM and the “efficacy (%) HL60‐FPR2” value amounted to 60%. At FPR1, the EC50 was 13.2 ± 2.6 µM and the “efficacy (%) HL60‐FPR1” value is 85%. In the data set on human neutrophils (hPMN), the “efficacy (%) hPMN” value is recorded as 75% and a half-maximal effect (EC50) was put at 8.2 ± 2.6 µM.
On to `COc1cccc(-c2nn(CC(=O)Nc3ccc(Br)cc3)c(C)c2C#N)c1` [Compound 7a, N‐(4‐Bromophenyl)‐2‐[4‐cyano‐3‐(3‐methoxyphenyl)‐5‐methylpyrazol‐1‐yl]acetamide], for which, on FPR2, a half-maximal effect (EC50) was put at 6.1 ± 2.2 µM and the “efficacy (%) HL60‐FPR2” value is recorded as 75%. Also, the “preference for FPR2” value on FPR2 (FPR2 over FPR1, from EC50 values) is reported as “threefold”. On FPR1, the EC50 turned out to be 18.4 ± 4.3 µM and the “efficacy (%) HL60‐FPR1” value is recorded as 75%. Further, in the data set on human neutrophils (hPMN), the “efficacy (%) hPMN” value is on record as 80% and the EC50 is 6.5 ± 1.6 µM.
Regarding `O=C(Cn1c(=O)ccn1-c1ccccc1)Nc1ccc(Br)cc1` [Compound 9a, N‐(4‐Bromophenyl)‐2‐(5‐oxo‐2‐phenyl‐2,5‐dihydropyrazol‐1‐yl)acetamide], the melting point fell in the range of 136 to 139 °C.
For `Nc1cn(-c2ccccc2)n(CC(=O)Nc2ccc(Br)cc2)c1=O` [Compound 9b, 2‐(4‐Amino‐5‐oxo‐2‐phenyl‐2,5‐dihydropyrazol‐1‐yl)‐N‐(4‐bromophenyl)acetamide], the melting point fell in the range of 160 to 163 °C. On FPR2, the response was half-maximal at 23.1 ± 6.3 µM (EC50) and the “efficacy (%) HL60‐FPR2” value turned out to be 50%. For the same compound, the “EC50 (µM) hPMN” value in the data set with human neutrophils (hPMN) (Ca2+ mobilization in human neutrophils, mean of three independent experiments, N.A. = no activity (limits efficacy <20% and EC50 < 50 µM)) was “inactive”.
On to `COc1cccc(Nc2cn(-c3ccccc3)n(CC(=O)Nc3ccc(Br)cc3)c2=O)c1` [Compound 10, N‐(4‐Bromophenyl)‐2‐[4‐(3‐methoxyphenylamino)‐5‐oxo‐2‐phenyl‐2,5‐dihydropyrazol‐1‐yl]acetamide], for which the melting point fell in the range of 163 to 166 °C.
As for `CCCCCCn1c(=O)c(-c2cccc(OC)c2)cn1-c1ccccc1` [Compound 13f, Hexyl‐4‐(3‐methoxyphenyl)‐1‐phenyl‐1,2‐dihydropyrazol‐3‐one], at FPR2, the midpoint of the response, the EC50, lay at 10.5 ± 3.5 µM and the “efficacy (%) HL60‐FPR2” value came out at 90%. Moreover, on FPR1, a half-maximal effect (EC50) was put at 20.2 ± 5.4 µM and the “efficacy (%) HL60‐FPR1” value is 35%. For the same compound, in the data set with human neutrophils (hPMN), the “efficacy (%) hPMN” value worked out at 55% and the EC50 turned out to be 13.8 ± 4.2 µM.
Consider `Cc1cc(OCC(=O)Nc2ccc(Br)cc2)n[nH]1` [Compound 15, N‐(4‐bromophenyl)‐2‐[(5‐methyl‐1H‐pyrazol‐3‐yl)oxy]acetamide], for which, at FPR2, the midpoint of the response, the EC50, lay at 25.9 ± 6.4 µM and the “efficacy (%) HL60‐FPR2” value came out at 60%. Further, at FPR1, the EC50 was 9.8 ± 2.7 µM and the “efficacy (%) HL60‐FPR1” value is recorded as 60%. In addition, in the data set with human neutrophils (hPMN), the “efficacy (%) hPMN” value is listed as 55% and the response was half-maximal at 18.6 ± 4.7 µM (EC50).
For the compound `CC(C)c1c(NC(=O)Nc2ccc(Cl)cc2)c(=O)n(-c2ccccc2)n1C` [Cpd43], in data set [2], the “profile in animal models of rheumatoid arthritis” value is recorded as “excellent profile”.
Consider `COc1cccc(Cc2c(C)c(C)nn(CC(=O)Nc3ccc(Br)cc3)c2=O)c1` [EC3, reference compound], for which the “anti‐inflammatory activity in vivo” value in data set [1] was “anti‐inflammatory activity”. The “efficacy (%) HL60‐FPR2” value at FPR2 is on record as 80%. The EC50 on FPR2 (setting [3]) was 0.043 ± 0.0016 µM; in the data set on FPR3 (2017), 0.04 µM; on FPR1 (setting [3]) it was 0.019 ± 0.005 µM. Besides, the “efficacy (%) HL60‐FPR1” value on FPR1 stood at 85%. In addition, the “efficacy (%) hPMN” value in the data set with human neutrophils (hPMN) stood at 150%.
For `COc1cccc(Nc2c(C(C)=O)c(C)nn(CC(=O)Nc3ccc(Br)cc3)c2=O)c1` [EC10, reference compound], the “anti‐inflammatory activity in vivo” value in data set [1] is given as “anti‐inflammatory activity”. Also, at FPR2, the “efficacy (%) HL60‐FPR2” value turned out to be 60%. The concentration giving a half-maximal response (EC50) at FPR2 (setting [3]) is 0.17 ± 0.038 µM; with FPR3 (2016), 0.21 µM; on FPR1 (setting [3]), 0.045 ± 0.016 µM; in the data set with human neutrophils (hPMN), 0.036 ± 0.007 µM. Moreover, on FPR1, the “efficacy (%) HL60‐FPR1” value is listed as 185%. For the same compound, the “efficacy (%) hPMN” value in the data set on human neutrophils (hPMN) was 150%.
